Experimental data from the NIST ThermoML archive (doi:10.1016/j.jct.2004.11.009).

Assay: xn = mol fraction of the nth substance listed
Details: 101.33 kPa, Liquid

Cc1cccnc1 [3-methylpyridine] + O
Details	mass density [kg/m3]	viscosity [mPa·s]
293.15 K, x1 = 0.0101	998	1.149
293.15 K, x1 = 0.0211	997.8	1.301
293.15 K, x1 = 0.033	997.5	1.467
293.15 K, x1 = 0.0462	997.2	1.626
293.15 K, x1 = 0.114	995.4	2.301
293.15 K, x1 = 0.225	992.1	2.914
293.15 K, x1 = 0.36	986.9	3.04
293.15 K, x1 = 0.436	983.1	2.9
293.15 K, x1 = 0.5	979.7	2.733
293.15 K, x1 = 0.6	974.3	2.386
293.15 K, x1 = 0.7	969	2.021
293.15 K, x1 = 0.8	964.1	1.655
293.15 K, x1 = 0.9	959.8	1.31
293.15 K, x1 = 1	956	0.9459
303.15 K, x1 = 0.0101	995.1	0.913
303.15 K, x1 = 0.0211	994.4	1.021
303.15 K, x1 = 0.033	993.7	1.133
303.15 K, x1 = 0.0462	992.9	1.255
303.15 K, x1 = 0.114	989.3	1.705
303.15 K, x1 = 0.225	984	2.022
303.15 K, x1 = 0.36	977.8	2.034
303.15 K, x1 = 0.436	973.6	1.938
303.15 K, x1 = 0.5	970.2	1.83
303.15 K, x1 = 0.6	964.5	1.638
303.15 K, x1 = 0.7	959.4	1.449
303.15 K, x1 = 0.8	954.6	1.255
303.15 K, x1 = 0.9	950.3	1.049
303.15 K, x1 = 1	946.6	0.8318
313.15 K, x1 = 0.0101	991.2	0.731
313.15 K, x1 = 0.0211	990.2	0.8139
313.15 K, x1 = 0.033	989.2	0.8959
313.15 K, x1 = 0.0462	988	0.98
313.15 K, x1 = 0.114	982.9	1.307
313.15 K, x1 = 0.225	976.4	1.572
313.15 K, x1 = 0.36	968.9	1.588
313.15 K, x1 = 0.436	964.7	1.511
313.15 K, x1 = 0.5	961	1.43
313.15 K, x1 = 0.6	955.3	1.286
313.15 K, x1 = 0.7	950.2	1.149
313.15 K, x1 = 0.8	945.5	1.018
313.15 K, x1 = 0.9	941.3	0.884
313.15 K, x1 = 1	937.7	0.7352
323.15 K, x1 = 0.0101	986.6	0.6101
323.15 K, x1 = 0.0211	985.2	0.6693
323.15 K, x1 = 0.033	983.7	0.7356
323.15 K, x1 = 0.0462	982.3	0.7921
323.15 K, x1 = 0.114	975.6	1.048
323.15 K, x1 = 0.225	967.7	1.23
323.15 K, x1 = 0.36	959.4	1.255
323.15 K, x1 = 0.436	954.9	1.207
323.15 K, x1 = 0.5	951.2	1.162
323.15 K, x1 = 0.6	945.5	1.071
323.15 K, x1 = 0.7	940.5	0.9777
323.15 K, x1 = 0.8	935.9	0.8686
323.15 K, x1 = 0.9	931.8	0.7536
323.15 K, x1 = 1	928.3	0.6565
333.15 K, x1 = 0.0101	981.4	0.5203
333.15 K, x1 = 0.0211	979.6	0.5735
333.15 K, x1 = 0.033	977.7	0.6346
333.15 K, x1 = 0.0462	975.8	0.6624
333.15 K, x1 = 0.114	967.9	0.866
333.15 K, x1 = 0.225	958.7	1.015
333.15 K, x1 = 0.36	950	1.042
333.15 K, x1 = 0.436	945.4	1.004
333.15 K, x1 = 0.5	941.8	0.9701
333.15 K, x1 = 0.6	936.1	0.8988
333.15 K, x1 = 0.7	931.1	0.8305
333.15 K, x1 = 0.8	926.7	0.7562
333.15 K, x1 = 0.9	922.7	0.6699
333.15 K, x1 = 1	919.3	0.5936
343.15 K, x1 = 0.0101	975.8	0.4504
343.15 K, x1 = 0.0211	973.7	0.4888
343.15 K, x1 = 0.033	971.7	0.5355
343.15 K, x1 = 0.0462	969.4	0.5782
343.15 K, x1 = 0.114	960.5	0.7454
343.15 K, x1 = 0.225	950.2	0.8494
343.15 K, x1 = 0.36	940.4	0.8766
343.15 K, x1 = 0.436	936	0.8557
343.15 K, x1 = 0.5	932.3	0.8315
343.15 K, x1 = 0.6	926.8	0.786
343.15 K, x1 = 0.7	921.8	0.7335
343.15 K, x1 = 0.8	917.4	0.673
343.15 K, x1 = 0.9	913.6	0.6135
343.15 K, x1 = 1	910.3	0.539
